From patent publication US20240092778A1, “TOPICAL PHARMACEUTICAL COMPOSITIONS AND METHODS” (PYRAMID BIOSCIENCES, INC., priority 2020, published 2024)
Where two headings read alike, the source gives them in different places.

What was measured:
[1] = system: human skin; test: Cumulative irritant patch test (RIPT, 21 days) in healthy participants; conditions: occlusive patch, healthy subjects
Text: The objective of this study was to assess the primary irritancy potential of Compound A mesylate Topical Cream in human skin using a Repeat Insult Patch Testing (RIPT) over twenty-one (21) days.
This RIPT was an open-label, single-arm (cell), randomized, evaluator-blinded study wherein test products were applied under an occlusive dressing to the upper back or upper arm continuously and repeatedly to the same site for a period of 21 days. Three concentrations of The Cream described in Example 13 (0.1%, 0.03%, 0.01%) and Vehicle (Placebo Cream—0%) were applied to the skin of healthy subjects aged 18-70 with a Fitzpatrick Skin Type of I-III. In addition, one site was treated with 0.4 ml of 0.25% sodium lauryl sulfate (SLS) as a positive control and another site was treated with a plain Webril patch (cotton cloth) which served as a negative control. The total daily dose of Compound A received by each subject was 560 μg (0.4 ml of each of the three concentrations/3 different sites) or approximately 8 μg/kg. The evaluator graded the level of irritation for each test site at every study visit and was blinded as to the identity of the test products. The targeted sample size was at least 25 subjects (n=25) at completion.
Approximately 0.4 ml of each test material was spread uniformly onto a 15 mm diameter circular disc of non-absorbing cotton cloth (Webril) using micropipettes or plastic tuberculin syringes. The treated circular disc was applied to the designated skin site (see Randomization Section below) measuring 15 mm in diameter on the upper arm or upper back. In addition to the test products, one site was treated with 0.4 ml of 0.25% sodium lauryl sulfate (SLS) as a positive control and another site was treated with a plain Webril patch (cotton cloth) as a negative control. Each site was covered with an occlusive tape (Blenderm, 3M) and the entire patch fastened to the skin with Scanpor or Hypafix Tape to ensure intimate contact with the skin. The initial patch was applied on Day 0 and grading began on Day 1.
Subjects returned to the testing facility once daily (Monday to Friday). […] Subjects were questioned and assessed for adverse events as well as any changes in their health or concomitant medications at every study visit. […]
All patches were inspected at each study visit and adhesion issues were noted when present. Patch sites were inspected and irritant reactions provoked during the study were recorded daily (Monday-Friday). […]
The CII was calculated for each product as well as the positive and negative control sites. The CII is the ratio calculated by dividing the sum of the cumulative irritation scores (SCS) from all subjects by the number of subjects in the completed panel×the maximum tolerated score per patch site (3)×the number of grading assessments (15).

[2] = Solubility of Compound A mesylate salt Form B in excipients and buffers; assay type: physicochemical
Procedure: The solubility was determined visually. The approximate amount of drug dissolved was calculated as mg/g of compound soluble in each solvent tested.
The steps involved in performing the solubility study were as follows: • a) Label scintillation vials appropriately for each excipient that were tested. • b) Stir bar was placed in each vial and weighed the empty vial containing stir bar and cap with inert liner. Recorded the TARE weight. • c) Approximately 5.0 g of each excipient was weighed into the designated vial and approximately 5 mg of the API (Compound A mesylate salt) was added to into each vial. • d) All the closed vials were placed on a multi-position stir plate and allowed to mix for at least 15 minutes at ambient conditions. • e) Visually inspected to see if the API has completely dissolved. • f) If the API has dissolved, the last 3 steps were repeated. Additional API aliquots added to the mixture were recorded till saturation solubility reached. […] Stirring the solutions was continued overnight at ambient temperature to confirm solubility is maintained. • g) If API has not completely dissolved, continue stirring samples overnight at ambient conditions. • h) The final weight of the vial, cap, stir bar, and sample were recorded. • i) Further, the final observations were recorded as needed to document the observations.

[3] = Drug excipient compatibility study (physical appearance, % label claim, total impurities); assay type: physicochemical
Procedure: The goal of the drug excipient compatibility study was to identify excipients that are incompatible with the Compound A mesylate salt (Form B), resulting in high impurity growth compared to the baseline (To). The compatibility of the compound in selected excipients was assessed by mixing the compound with individual excipients and placing the mixtures on stability studies for 2 or 4 weeks at 25° C./60% RH and 40° C./75% RH. If the compound was insoluble in any excipient, the sample was prepared by first dissolving Compound A mesylate salt in a solvent (purified water) and then mixing with the excipient in a 1:1 ratio. A stock solution of the Compound A mesylate salt in water (0.45% w/w) was used. The total level of impurities over 4 weeks at the two stability conditions were measured.
Physical appearance of Drug-Excipient mixture was evaluated visually, and the observations were recorded which are summarized in Table 2.
In summary, the compound was stable when mixed with the following chemicals: isopropyl myristate, ethanol, medium chain triglycerides, light mineral oil, cyclomethicone, white petrolatum, span 80, glycerin, sorbitol solution 70%, HPMC, HPC, and stearyl alcohol.

[4] = system: Primary human keratinocytes; test: Human primary keratinocytes proliferation assay (BrdU incorporation); assay type: cell-based; conditions: for IC50: Homo sapiens, Keratinocyte, read-out: calculated potency (IC50) to block cell proliferation
Procedure: Primary human keratinocytes (KMF112410A) were grown in 96-well plates and exposed to different concentration of Compound A mesylate salt, 0.1 nM to 100 μM, for 24 hours or 72 hours.
After 4 hours, the medium was removed and 100 μL of the Fixing/Denaturing solution (paraformaldehyde) was added to each well and allowed to incubate at room temperature for 30 minutes. After 30 minutes, the fixing solution was removed and 100 μl of the prepared 1× detection antibody (Cell Signaling Assay Kit, Catalogue No. 6813) was added to each well and allowed to incubate at room temperature for 1 hour. The plate was then washed 3 times with prepared wash buffer (details of wash buffer; PBS saline).
After washing, 100 μL of the prepared 1× Horseradish Peroxidase (HRP)-conjugated secondary antibody solution was added to each well and allowed to incubate at room temperature for 30 minutes. The plate was then washed 3 times with prepared wash buffer.
After washing the 100 μL 3,3′,5,5′-Tetramethylbenzidine (TMB) substrate was added to each well and incubated 30 minutes at room temperature. After 30 minutes, 100 μL of stop solution ([…]) was added to each well and the absorbance was read at 450 nm using a microplate Reader SpectraMax iD3 (Molecular Devices). The magnitude of the absorbance for the developed color is proportional to the quantity of BrdU incorporated into cells, which is a direct indication of cell proliferation, and negative control (50% supplemented keratinocyte growth medium alone) was used as reference to evaluate cell proliferation inhibition (levels <100%) or activation (levels >100%).

[5] = 28-day repeat dose dermal toxicity study; assay type: in vivo, minipig; conditions: Gottingen, minipig, in vivo, topical or ocular; for Cmax / AUC(0-t): 1 mg/kg/day dermal, Day 28; for AUC(0-t): read-out: AUC0-Tlast
Text: (§1) Toxicity evaluation of Compound A mesylate salt has comprised range-finding and pivotal repeat dose dermal and oral toxicology studies in minipigs, rats and dogs. The dermal route of administration was chosen because it is the intended to be the human therapeutic route. As per International Council for Harmonisation (ICH) guidelines, the oral route was selected in rats and dogs to assess systemic toxicity and to support dermal administration. The minipig was selected as the species for formal dermal toxicology testing of Compound A mesylate salt.
(§2) To support dermal administration of Compound A mesylate, in addition to oral repeat-dose toxicity studies in rats and dogs, dermal toxicity studies in minipigs were conducted. A 28-day repeat dose toxicity study was conducted by dermal application of Compound A mesylate salt at doses in the range of 0.1 mg/kg to 1 mg/kg.
(§3) The 28-day dose toxicity study was initiated at doses in the range of 0.1 to 1.0 mg/kg.

[6] = system: Gottingen Minipigs; test: 28-day repeat dose dermal toxicity study; assay type: in vivo, minipig
Text: as §1, §2, §3

[7] = system: minipigs; test: Non-GLP 7-day intravenous study; assay type: in vivo, minipig; conditions: daily for 7 days
Procedure: To understand the relationship between potential Compound A mesylate exposure and toxicity (clinical observations), a non-GLP intravenous study was conducted. In this study, minipigs were administered up to 10 mg/kg daily for 7 days by intravenous administration to determine Compound A mesylate exposure and clinical observations. Overall, minipigs tolerated intravenous dose of up to 10 mg/kg/day for 7 seven days without any adverse clinical signs.

[8] = Dog oral toxicity studies (one-month); assay type: in vivo; conditions: in vivo, one-month study
Text: as §1
(§4) The NOAEL for the one-month study was 2 mg/kg/day.

[9] = system: dogs; test: Dog oral toxicity studies (one-month); assay type: in vivo
Text: as §1, §4

[10] = One-month rat oral toxicity study; assay type: in vivo; conditions: in vivo, oral, for the myocardial findings
Text: as §1
(§5) The NOAEL for these findings was 0.5 mg/kg/day.

[11] = system: rats; test: One-month rat oral toxicity study; assay type: in vivo
Text: as §1, §5

[12] = system: rabbits; test: Skin irritation (erythema and edema); assay type: in vivo, rabbit
[13] = system: guinea pigs; test: Contact sensitization; assay type: in vivo, guinea pig
[14] = system: bovine cornea; test: Bovine corneal opacity and permeability (BCOP) assay
[15] = target: T1, TRKA (Homo sapiens, UniProt P04629); test: TRKA inhibition in cells (IC50); assay type: cell-based; conditions: read-out: half maximal inhibitory concentration (IC50) for TRKA
T1 construct: host or cells: cells, not specified
Text: (§6) Compound A is a highly specific pan-TRK inhibitor with a mechanism of action that is competitive with the adenosine triphosphate (ATP) binding site of TRKA.

[16] = target: T2, TRKB (Homo sapiens, UniProt Q16620); test: TRKB activity in cell-based system overexpressing wild-type full-length receptor; conditions: cell-based systems overexpressing wild-type, human TRK receptors
T2 construct: in cell-based systems overexpressing wild-type, full-length, human TRK receptors; expressed in transfected cells
Text: as §6

[17] = target: T3, TRKC (Homo sapiens, UniProt Q16288); test: TRKC activity in cell-based system overexpressing wild-type full-length receptor; conditions: cell-based systems overexpressing wild-type, human TRK receptors
T3 construct: in cell-based systems overexpressing wild-type, full-length, human TRK receptors; expressed in transfected cells
Text: as §6

[18] = system: adults with recurrent glioblastoma multiforme (GBM); conditions: up to 60 mg daily; cited from earlier work
[19] = system: Primary human keratinocytes; conditions: at their respective concentration (Dox 1 μM) after 24 and 72 hours of exposure
Procedure: Cell death/apoptosis was determined by Propidium Iodide (PI) and Annexin V staining.
For the cell death/apoptosis, human primary neonatal keratinocytes were cultured (5,000 cells/well) in clear bottom 96-well plates overnight. The next morning, growth medium was removed and replaced with 50% supplemented keratinocyte growth medium containing compounds and controls.
After 24 or 72 hours treatment, 200 μL of the prepared 1:100 Annexin V (Biovision, catalog number K101) and PI in 1× binding buffer solution was added to each of the wells and allowed to incubate at room temperature for 5 minutes. Cells were then washed with DPBS (Dulbecco's Phosphate-Buffered Saline) and fixed for 30 minutes in 2% Paraformaldehyde (PFA). Following fixation, cells were washed 3× with 200 μL of DPBS. A final volume of 100 μL of DPBS were added to the wells. Quantification of Annexin V and PI were assessed using the Array Scan High Content Imaging System (ThermoFisher).
The signal quantified for Annexin V, an early apoptosis event marker (FIG. 5) and PI to assess cell death (apoptosis and necrosis) was compared to negative control (50% supplemented media) to determine the percentage of viability (FIG. 6).

[20] = T = 0 (Table 3a, 25° C./60% RH)
[21] = T = 0 (Table 3b, 40° C./75% RH)

T3 sequence (Q16288 32-839): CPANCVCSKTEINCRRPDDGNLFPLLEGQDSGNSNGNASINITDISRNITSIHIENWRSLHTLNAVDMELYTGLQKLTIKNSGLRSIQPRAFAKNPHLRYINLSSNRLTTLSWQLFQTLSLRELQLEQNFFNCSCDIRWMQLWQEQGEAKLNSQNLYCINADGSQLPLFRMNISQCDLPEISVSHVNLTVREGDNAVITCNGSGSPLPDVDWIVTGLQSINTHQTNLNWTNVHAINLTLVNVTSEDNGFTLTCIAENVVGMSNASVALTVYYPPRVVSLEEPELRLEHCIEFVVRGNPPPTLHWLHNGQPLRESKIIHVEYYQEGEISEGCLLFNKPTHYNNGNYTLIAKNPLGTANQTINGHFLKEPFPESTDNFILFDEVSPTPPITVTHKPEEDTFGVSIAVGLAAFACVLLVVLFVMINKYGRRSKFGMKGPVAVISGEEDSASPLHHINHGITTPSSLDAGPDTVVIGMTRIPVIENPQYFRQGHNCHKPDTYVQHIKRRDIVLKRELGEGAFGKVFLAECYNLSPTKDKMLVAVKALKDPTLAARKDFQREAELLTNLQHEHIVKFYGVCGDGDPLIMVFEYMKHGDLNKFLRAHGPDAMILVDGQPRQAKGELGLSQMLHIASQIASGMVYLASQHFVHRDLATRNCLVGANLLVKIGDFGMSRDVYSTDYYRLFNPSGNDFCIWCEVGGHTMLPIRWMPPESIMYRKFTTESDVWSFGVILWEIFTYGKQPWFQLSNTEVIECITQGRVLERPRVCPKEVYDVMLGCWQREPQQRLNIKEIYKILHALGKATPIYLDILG
T1 sequence (P04629 33-796): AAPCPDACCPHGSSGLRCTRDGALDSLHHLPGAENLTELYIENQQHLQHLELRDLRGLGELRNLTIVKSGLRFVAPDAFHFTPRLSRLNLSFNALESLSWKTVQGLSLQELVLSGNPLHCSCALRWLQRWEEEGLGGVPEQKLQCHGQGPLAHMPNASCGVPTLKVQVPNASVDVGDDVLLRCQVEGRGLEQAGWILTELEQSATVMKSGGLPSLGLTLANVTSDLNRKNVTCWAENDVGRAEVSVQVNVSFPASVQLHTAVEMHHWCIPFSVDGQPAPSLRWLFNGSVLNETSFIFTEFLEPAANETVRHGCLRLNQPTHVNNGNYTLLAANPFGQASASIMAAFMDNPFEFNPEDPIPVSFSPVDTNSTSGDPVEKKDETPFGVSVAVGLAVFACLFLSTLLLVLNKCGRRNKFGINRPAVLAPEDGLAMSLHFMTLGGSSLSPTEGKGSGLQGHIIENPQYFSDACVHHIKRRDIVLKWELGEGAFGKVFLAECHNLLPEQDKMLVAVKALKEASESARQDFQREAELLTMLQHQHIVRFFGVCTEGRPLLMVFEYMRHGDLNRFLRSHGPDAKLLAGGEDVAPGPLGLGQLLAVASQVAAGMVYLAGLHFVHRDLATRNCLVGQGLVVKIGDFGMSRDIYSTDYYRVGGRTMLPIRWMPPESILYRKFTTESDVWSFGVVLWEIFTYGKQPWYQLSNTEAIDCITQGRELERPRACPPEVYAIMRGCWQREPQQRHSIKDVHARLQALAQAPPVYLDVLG
T2 sequence (Q16620 32-822): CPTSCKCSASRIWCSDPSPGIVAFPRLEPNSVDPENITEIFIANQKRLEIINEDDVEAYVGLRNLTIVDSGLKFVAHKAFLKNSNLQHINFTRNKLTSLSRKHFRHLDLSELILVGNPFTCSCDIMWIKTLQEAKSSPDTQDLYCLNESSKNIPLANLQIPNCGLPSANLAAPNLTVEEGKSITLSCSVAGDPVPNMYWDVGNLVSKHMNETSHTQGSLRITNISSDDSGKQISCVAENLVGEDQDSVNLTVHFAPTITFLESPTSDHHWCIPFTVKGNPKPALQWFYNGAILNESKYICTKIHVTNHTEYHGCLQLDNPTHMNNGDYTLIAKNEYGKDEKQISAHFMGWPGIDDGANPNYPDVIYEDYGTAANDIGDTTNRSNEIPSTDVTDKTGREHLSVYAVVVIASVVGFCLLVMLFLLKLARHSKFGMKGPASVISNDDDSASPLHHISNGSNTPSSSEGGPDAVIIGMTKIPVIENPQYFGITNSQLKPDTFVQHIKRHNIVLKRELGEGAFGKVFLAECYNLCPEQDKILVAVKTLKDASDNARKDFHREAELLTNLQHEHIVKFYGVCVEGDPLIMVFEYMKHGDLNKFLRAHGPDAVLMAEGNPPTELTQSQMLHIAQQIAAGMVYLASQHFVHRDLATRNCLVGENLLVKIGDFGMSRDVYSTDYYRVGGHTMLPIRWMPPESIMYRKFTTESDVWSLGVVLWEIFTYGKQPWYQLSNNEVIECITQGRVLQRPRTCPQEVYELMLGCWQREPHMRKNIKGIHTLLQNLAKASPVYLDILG

## CCCCCCCCCCCCOS(=O)(=O)[O-].[Na+] [0.25% Sodium Lauryl Sulfate, sodium lauryl sulfate]
[1]
  Cumulative Irritation Index (CII): 0.24
  Mean Cumulative Irritation Score: 10.89
  Mean Daily Score: 0.73
  Sum of Cumulative Scores: 294

## CC(C)Oc1cc(-n2cnc3ccc(N[C@@H](C)c4ncc(F)cn4)nc32)n[nH]1.CS(=O)(=O)O [Compound A mesylate salt, N-[(1S)-1-(5-fluoropyrimidin-2-yl)ethyl]-3-(5-isopropoxy-1H-pyrazol-3-yl)-3H-imidazo[4,5-b]pyridin-5-amine mesylate]
[2]; in Ethanol, 24 hours at room temperature, visual
  Solubility: ≥6.61 mg/g
[2]; in water
  water solubility: ~9.5 % w/w
[2]; solubility study in Citrate buffer (pH 5.6)
  Observation: Aggregated
[2]; solubility study in Ethanol
  Observation: Solubilized
[2]; solubility study in Phosphate buffer (pH 7.4)
  Observation: Aggregated
[3]; [20]
  % Label Claim: 99.9%
  Total Impurities (%): 0.00%
[3]; [21]
  % Label Claim: 99.9%
  Total Impurities (%): 0.00%
[3]; T = 2 weeks, 25° C./60% RH
  % Label Claim: 99.2%
  Total Impurities (%): 0.00%
[3]; T = 2 weeks, 40° C./75% RH
  % Label Claim: 99.7%
  Oxidation Adjusted: 0.00
  Total Impurities (%): 0.00%
[3]; T = 4 weeks, 25° C./60% RH
  % Label Claim: 100.5%
  Total Impurities (%): 0.00%
[3]; T = 4 weeks, 40° C./75% RH
  % Label Claim: 99.1%
  Oxidation Adjusted: 0.00
  Total Impurities (%): 0.00%
[4]; 24 hours
  IC50: 1250 nM
[4]; 72 hours
  IC50: 97 nM
[4]; after 24 hours of treatment
  dose showing significant inhibition of proliferation: ≥ 100 nM
[4]; after 72 h treatment
  dose showing significant inhibition of proliferation: ≥ 10 nM
[5]; both sexes, dermal, 28 days
  NOAEL at 28 days: 1 mg/kg/day
[5]; female, females
  Cmax: 2.52 ng/mL
  AUC(0-t): 37.2 ng·h/mL
[5]; male, males
  Cmax: 3.03 ng/mL
  AUC(0-t): 32.6 ng·h/mL
[6]; 0.1, 0.3, and 1 mg/kg/day for 28 consecutive days
  tolerability of dermal application: well tolerated
[6]; minipigs
  systemic exposure after dermal administration compared to intravenous administration: significantly lower
[7]
  tolerated intravenous dose without any adverse clinical signs: up to 10 mg/kg/day
[8]
  NOAEL at 1 month: 2 mg/kg/day
[9]
  effects on body weight, food consumption, clinical pathology, or histopathology: no compound-related effects
[9]; episodes of emesis and soft/fluid feces
  tolerability: generally well tolerated
[10]
  NOAEL at 1 month: 0.5 mg/kg/day
[11]
  histopathological findings: myocardial inflammation, fibrosis and increased plasma phosphate and Troponin I in a minority of animals
[11]; all dose levels
  food consumption and body weight gain: marked increase
[12]
  irritation (erythema and edema): non-irritant
[13]
  contact sensitization: not considered to be contact sensitizers
[14]
  ocular irritation: did not induce ocular irritation

## CC(C)Oc1cc(-n2cnc3ccc(N[C@@H](C)c4ncc(F)cn4)nc32)n[nH]1 [Compound A, N-[(1S)-1-(5-fluoropyrimidin-2-yl)ethyl]-3-(5-isopropoxy-1H-pyrazol-3-yl)-3H-imidazo[4,5-b]pyridin-5-amine]
[15]
  IC50: 0.2 nM
[16]
  in-vitro activity against TRKB, concentration: below 5 nM
[17]
  in-vitro activity against TRKC, concentration: below 5 nM
[18]
  early efficacy signals in GBM patients: No early efficacy signals

## COC(=O)[C@@]1(O)C[C@H]2O[C@]1(C)n1c3ccccc3c3c4c(c5c6ccccc6n2c5c31)C(=O)NC4 [Compound K252a]
[19]
  cell death (Annexin V / PI) versus negative control: significant cell death
